Measured values from patent US20060004088A1, “Furan derivatives for preventing and curing osteoporosis and pharmaceutical compositions containing the same” (OCT INC., priority 2002, published 2006).

Columns and labels:
[1] = system: alkaline phosphatase (ALP) in HOS cells; experiment: Alkaline phosphatase (osteoblast marker enzyme) activity in HOS cells; type: cell-based, human; conditions: text summary, concentration not stated
Description: (§1) In the following tests, three kinds of cell lines were used. The human osteosarcoma cell lines, MG-63 (ATCC No. CRL-1427) and HOS (ATCC No. CRL-1543), and mouse muscle C2C12 muscle cells (ATCC No. CRL-1772) were purchased from ATCC (American Type Culture Collection, Rockville, USA), and cultured in Dulbecco's modified Eagle's medium (DMEM) supplemented with 10% fetal bovine serum (FBS).
To examine whether the Compound 1 affects positively or negatively osteoblast activity, alkaline phosphatase (ALP) activity was measured. HOS cells were aliquotted onto a 96-well microplate at a density of 5×10^3 cells per well, and cultured. When forming a monolayer, the cells were treated with the naturally extracted compound (Compound 1) at prescribed concentrations. After incubation in 10% FBS-containing DMEM for 48 hrs, the cells were treated with 0.1% Triton X-100/saline for 30 min at 37° C. A portion of each cell lysate was reacted with 0.1 N glycine-NaOh buffer (pH 10.4) for 30 min at 37° C. in the presence of 100 mM nitrophenyl phosphate (PNPP) as a substrate of alkaline phosphate. The amount of PNP (ρ-nitrophenol) released from the substrate PNPP was determined by measuring absorbance at 405 nm. Protein amount was determined by a modified Lowry method, and enzyme activity was designated as nmol substrate cleaved/h/mg protein.

[2] = system: transcriptional factor Runx2; experiment: Runx2 expression, p6xOSE2-Luc luciferase assay in C2C12 cells; type: cell-based, mouse
Description: as §1
Primarily, transient transfection was carried out using a p6xOSE2-Luc vector, which was prepared by inserting into a pGL3 promoter vector six tandem copies of the OSE2 motif, the binding site of the transcriptional factor Runx2 that is a critical regulator for osteoblast differentiation. Runx2 expression levels were determined by luciferase assay. The test procedure will be described in more detail, as follows.
C2C12 cells were plated onto 6-well plates at a density of 1(10^5 cells per well, and cultured for 24 hrs in a 5% CO2 incubator.
Then, the cells transiently transfected with the p6xOSE2-Luc vector using a transfection reagent, LipofectAmine, as follows. The plasmid DNA was reacted with the transfection reagent for 15 min to form p6xOSE2-Luc DNA:lipofectamine complexes. During this reaction, culture medium was removed from each well of the plates, the cells were washed with FBS-free DMEM, and 800 μl of FBS-free DMEM was added to each well. […]

osteoprotegerin (OPG) = experiment: Osteoprotegerin (OPG) expression in MG63 cells, OPG ELISA; type: cell-based, human; conditions: for OPG expression level in MG63 cells, %: control = 100
Description: as §1
When MG63 cells grew confluently on 96-well plates, […] of FBS-free DMEM containing various concentrations of the Compound 1 was added to each well. After incubation for 16 hrs, the culture supernatants were collected. The amount of OPG released into the medium was determined using an OPG ELISA kit.

osteoclasts = experiment: Resorption activity of osteoclasts on calcium phosphate-coated plates (resorption pit area); type: cell-based, mice; conditions: for Resorption activity of osteoclasts, %: control = 100; for area of resorption pits compared to the control: text summary, concentration not stated
Description: First, bone marrow cells were isolated, as follow. After sacrificing 7-9 week female mice by cervical dislocation, femur and tibia were excised aseptically while removing attached soft tissues. After cutting both ends of long bones, 1 ml of an enzyme solution, containing 0.1% collagenase (Gibco), 0.05% trypsin and 0.5 mM EDTA (Gibco), was injected to the bone marrow cavity at one end using a syringe with a 26-guage needle, and bone marrow was then collected. After shaking the recovered bone marrow for 30 min, bone marrow cells were collected, and cultured in α-minimum essential medium (α-MEM) supplemented with 10% FBS for 24 hrs. Then, non-adherent cells were collected, which are osteoclast pregenitors, aliquotted onto culture plates at a density of 2×10^5 cells per well, and cultured for 8 days in α-MEM supplemented with 20 ng/ml of macrophage-colony stimulating factor (M-CSF, Peprotech, USA) and 30 ng/ml RANKL (Peprotech, USA). During the 8 days of culturing, the cells were treated with the Compound 1. Thereafter, osteoclast formation was investigated by fixing the cultured cells and then carrying out TRAP staining, as described in the following Experimental Example 2.2. In addition, resorption activity of osteoclasts was investigated by measuring the absorption area after removing osteoclasts in cultures in calcium phosphate-coated plates, as described in Experimental Example 2.3, below.
The differentiated osteoclasts were cultured on calcium phosphate-coated plates (OAASTM, OCT, Korea) in order to evaluate resorption activity of the cells. After removing culture medium, to remove the adherent cells, the plates were washed with distilled water three times, and incubated in 5% sodium hypochlorite for 5 min. After washing again with distilled water and drying the plates, the area of formed resorption pits was calculated by means of an Image Pro Plus software.

[3] = system: ovariectomized female white mice with onset of osteoporosis; experiment: Therapeutic effect on osteoporosis, bone mineral densitometer; type: in vivo
Description: After ovariectomy, female white mice weighing about 250 g were bred for four weeks. After checking the onset of osteoporosis in the mice, each of the mice was orally administered with 220 μl of the Compound 1 dissolved in 30 ml water for four weeks.
BMD measurement was performed before ovariectomy and every week for eight weeks after ovariectomy, using a bone mineral densitometer, XCT 540 Research SA made in Germany.
After anesthetizing the mice being bred in cages by intraperitoneal injection of a mixture of Ketamine HCl (ketara 10 mg/kg) and 2% xylazine HCl (Roupun 0.15 ml/kg), BMD measurement was made at a voxel size of 0.1×0,1 mm^2 and threshold values of 280 mg/cm^2 for cancellous bone and 500 mg/cm^2 for compact bone. The analysis sites at the proximal tibias were determined by Scout scans (10 mm/sec), and BMD was measured at three slices at the determined sites by CT scans (7 mm/sec). BMD measurement was performed twice or more at the same site every week during eight weeks after ovariectomy.

## O=Cc1ccc(CO)o1 [Compound 1, 5-hydroxymethylfuran-2-carboxyaldehyde]
[1]
  alkaline phosphatase activity compared to a control not treated: about 121%
[1]; listed as Example 1
  alkaline phosphatase activity compared to a control not treated: 120%
[2]
  effect on activity of Runx2 (in words): increase the activity of Runx2
Osteoprotegerin (OPG)
  effect on expression of osteoprotegerin (OPG) in osteoblasts (in words): increases the expression of osteoprotegerin (OPG)
Osteoprotegerin (OPG); 10^−6 M Compound 1, 16 hrs
  OPG expression level in MG63 cells, %: 866.90 ± 10.59%
Osteoprotegerin (OPG); 10^−8 M Compound 1, 16 hrs
  OPG expression level in MG63 cells, %: 204.30 ± 14.96%
osteoclasts; 10^−4 M Compound 1, area of resorption pits
  Resorption activity of osteoclasts, %: 52.34 ± 8.28%
osteoclasts; 10^−5 M Compound 1, area of resorption pits
  Resorption activity of osteoclasts, %: 46.92 ± 3.60%
osteoclasts; 10^−6 M Compound 1, area of resorption pits
  Resorption activity of osteoclasts, %: 41.75 ± 14.07%
osteoclasts; 10^−7 M Compound 1, area of resorption pits
  Resorption activity of osteoclasts, %: 61.46 ± 10.35%
osteoclasts; 10^−8 M Compound 1, area of resorption pits
  Resorption activity of osteoclasts, %: 66.03 ± 7.49%
osteoclasts
  area of resorption pits compared to the control: about 50%
osteoclasts; listed as Example 1
  area of resorption pits compared to the control: inhibit bone resorption activity of osteoclasts
[3]; control about 22%
  decrease of BMD compared to that before the ovariectomy: about 15%
[3]; oral 220 μl/day for four weeks after four weeks of osteoporosis development
  reduction of BMD compared to a control (in words): very slight reduction of BMD
[3]; week 1 after ovariectomy (administration begins after week 4), control −3
  Change in BMD, %: −2.9%
[3]; week 2 after ovariectomy (administration begins after week 4), control −10
  Change in BMD, %: −10.5%
[3]; week 3 after ovariectomy (administration begins after week 4), control −15
  Change in BMD, %: −14%
[3]; week 4 after ovariectomy (administration begins after week 4), control −19
  Change in BMD, %: −17%
[3]; week 5 after ovariectomy, oral 220 μl in 30 ml water from week 4, control −21.8
  Change in BMD, %: −16.5%
[3]; week 7 after ovariectomy, oral 220 μl in 30 ml water from week 4, control −25.9
  Change in BMD, %: −19%
[3]; week 8 after ovariectomy, oral 220 μl in 30 ml water from week 4, control −32
  Change in BMD, %: −21.4%
